Data on 15 compounds can be found in patent publication US12448388B2, “PRMT5 inhibitors and uses thereof” (Gilead Sciences, Inc., priority 2023, dated 2025).

Data set [1] can be described thus: Hepatocyte stability assay, human. It counts as in vitro ADME. The note with it: human hepatocytes, 1 μM. Here is the method: (§1) BioreclamationIVT (Baltimore, MD) provided the cryopreserved hepatocytes, hepatocyte thawing (HT) medium, and Krebs-Henseleit buffer (KHB) medium. The stock solution concentration was 1 M in DMSO and was then diluted further in acetonitrile/water (1:1 v/v). All other chemicals were purchased from Sigma-Aldrich (St. Louis, MO) or Thermo Fisher Scientific (Waltham, MA).
(§2) The quench solution used to stop reactions in the hepatocyte incubations was comprised of 100% (v/v) acetonitrile. Internal Standard/Quench (IS/Q) solution used to stop reactions with the positive control also contained 200 nM Labetalol.
(§3) Metabolic Stability in Cryopreserved Hepatocytes: Test compounds, or the positive control metabolic substrate, was incubated in suspensions of cryopreserved hepatocytes at a final concentration of 1 μM. Vials containing cryopreserved hepatocytes were removed from liquid nitrogen and immediately immersed in a 37° C. water bath. The vials were swirled gently until the contents had thawed. They were then immediately emptied into 48 mL of pre-warmed thawing medium in a 50 mL conical tube. Cells remaining in the vial were re-suspended with 1.0 mL of pre-warmed thawing medium and added to the conical tube. The tube was capped and then gently inverted several times to re-suspend the hepatocytes. The cell suspension was centrifuged at 500×g for 10 minutes at room temperature and the supernatant discarded. The cell pellet was loosened by gently swirling the centrifuge tube. Non-supplemented KHB medium was added to obtain the appropriate target cell density. The viabilities of all cell preparations were ≥85%, assessed by Trypan blue dye exclusion.
(§4) For incubations, aliquots of hepatocyte suspension (250 μL containing a cell concentration of 2×10^6 cells/mL) were added to 250 μL of 2 μM substrate (test compound or positive control) in supplemented KHB in duplicate wells in a 24-well plate. Final concentration in the incubations were 1×10^6 cells/mL and 1 μM substrate. A cell-free control incubation (KHB only) was also included. The incubations were carried out with gentle shaking in a 37° C. incubator under a humid atmosphere of 95% air/5% CO2 (v/v). Aliquots (100 μL) were removed after 0, 1, 3, and 6 hours and added to 200 μL quenching solution. The samples were then placed on a shaker for 10 min followed by centrifugation at 3000×g for 20 min. The supernatant was transferred to a new plate and diluted with 100 μL of water to reduce the organic content and then placed on a shaker for 10 mins. Samples were injected and analyzed with methods described below.
(§5) Liquid Chromatography: Quantification of positive control and test compound was performed by analyte/internal standard peak area ratios (PAR) measured on a Thermo Scientific™ Q Exactive™ Hybrid Quadrupole-Orbitrap Mass Spectrometer MS/MS with an electrospray interface operating in positive ion mode. The mass spectrometer was coupled to a Dionex Ultimate® 3000 HPLC system. Samples (10 μL aliquots) were injected with a Leap Technologies HTC PAL autosampler. For positive control, the column used was a Thermo Scientific™ Hypersil GOLD™ HPLC column ([…], 50×2.1 mm). Mobile phase A consisted of 95% (v/v) water, 5% (v/v) acetonitrile, and contained 0.1% (v/v) formic acid (FA). Mobile phase B consisted of 95% (v/v) acetonitrile, 5% (v/v) water, and contained 0.1% (v/v) FA. Elution was achieved, at a flow rate of 0.5 mL/min, by a series of linear gradients: initial condition was 5% B at 0 min, isocratic for 20 seconds; then linear gradient to 95% B over 90 seconds, followed by isocratic for 60 seconds at 95% B, and re-equilibrated to initial conditions over 70 seconds.
(§6) Metabolic stabilities of positive control and test compound were determined by measuring the rates of disappearance of the parent with time by determining the % of parent remaining at time t (Ct) {Obach 1997}.
(§7) Data (% of parent remaining) were plotted on a semi-log scale and fitted using an exponential fit: […]

Data set [2] is described as follows: Hepatocyte stability assay, dog. It counts as in vitro ADME. Conditions: Beagle Dog. Here is the method: as §1, §2, §3, §4, §5, §6, §7
A short description of data set [3]: PK data (IV/PO) in Sprague-Dawley rat. It counts as in vivo. Conditions: for half-life / clearance / Vd: Sprague-Dawley, rat, in vivo, iv; for clearance: read-out: Observed CL (converted); for Vd: read-out: Vss.
In data set [4] the test system is Symmetric Di-methyl Arginine (SDMA) signal (PRMT5 inhibition) in HCT116 MTAP-deleted cells. Briefly: Symmetric di-methyl arginine image-based high content screen assay (SDMA assay), HCT116 MTAP-deleted. Type of data set: cell-based. The note with it: for EC50: Homo sapiens, HCT-116, HCT116 MTAP-deleted, class symbols. Put shortly:
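Read-out is imaging of per-cell mean SDMA immunofluorescence (Alexa 488), with cells segmented by DAPI. Cells, MTAP-deleted or wild-type HCT116, were exposed to compound for 3 days at 37 °C before fixation. EC50 derived by 4-parameter non-linear logistic regression.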

The mark [5] stands for this setting: HCT116 WT versus HCT116 MTAP-deleted.
Where [6] appears, read: HCT116 WT vs HCT116 MTAP-deleted.

The structures appear in SMILES notation. Several values for one entry are separate records, joined by “and”; a condition that tells them apart may be missing. Equal values may be shown once. Read-outs that look alike come from different tables or passages of the source. Bounds are passed on as bounds.

Turning to `C[C@H]1CN(C(=O)c2cc3c(cc2F)nc(N)c2cncn23)[C@H]2c3ccc(C(F)(F)F)cc3C[C@H]2O1` (single isomer, unassigned) [Ff-81], the “Human Predicted Hepatocyte CL” value in data set [1] was 3 mL/min/kg. The “Predicted Hepatocyte CL” value in data set [2] is 3.5 mL/min/kg. Besides, in data set [3] (1 mg/kg, IV 1 mg/Kg), the half-life (commonly the time in which the quantity being followed falls by half) is 4.7 h, the clearance was 4 mL/min/kg and the Vd stood at 1.65 L/kg.

In the case of `Nc1nc2cc(F)c(C(=O)N3CCO[C@@H]4Cc5cc(C(F)(F)F)ccc5[C@@H]43)cc2n2cncc12` (single isomer, unassigned) [Ff-82], the “Human Predicted Hepatocyte CL” value in data set [1] is 4.33 mL/min/kg.

Regarding `C[C@H]1CN(C(=O)c2cc3c(cc2F)nc(N)c2cncn23)[C@H]2c3cc(F)c(C(F)F)cc3C[C@H]2O1` (single isomer, unassigned) [Ff-173], in data set [1], the “Human Predicted Hepatocyte CL” value is 3 mL/min/kg.

Compound `C[C@@H]1CN(C(=O)c2cc3c(cc2F)nc(N)c2cncn23)[C@H]2c3ccc(OC(F)(F)F)cc3C[C@H]2O1` (single isomer, unassigned) [Ff-183] had an EC50 selectivity in data set [4] (setting [5]) of 117. For the same compound, in data set [4], the concentration giving a half-maximal response (EC50) (usually the concentration that produces a half-maximal response) was at most 1 nM. Besides, the “Human Predicted Hepatocyte CL” value in data set [1] is 3 mL/min/kg.

`C[C@@H]1CN(C(=O)c2cc3c(cc2F)nc(N)c2cncn23)[C@H]2c3cc(F)c(OC(F)(F)F)cc3C[C@H]2O1` (single isomer, unassigned) [Ff-197]: the “Human Predicted Hepatocyte CL” value in data set [1] is 4.17 mL/min/kg.

With `Nc1nc2cnc(C(=O)N3CC[C@H]4C[C@@H]3c3c(F)cc(C(F)(F)F)cc3O4)cc2n2cncc12` (single isomer, unassigned) [Ff-694], the “Human Predicted Hepatocyte CL” value in data set [1] is 3.5 mL/min/kg.

Take `Nc1nc2cc(F)c(C(=O)N3CCC[C@@H]4Oc5cc(C(F)(F)F)ccc5[C@@H]43)cc2n2cncc12` [Ff-104, (4-amino-7-fluoroimidazo[1,5-a]quinoxalin-8-yl)((4aS,9bS)-7-(trifluoromethyl)-3,4,4a,9b-tetrahydrobenzofuro[3,2-b]pyridin-1(2H)-yl)methanone]: the “Human Predicted Hepatocyte CL” value in data set [1] was 8.3 mL/min/kg. The “Predicted Hepatocyte CL” value in data set [2] is 6.33 mL/min/kg and 11.2 mL/min/kg. For the same compound, the T1/2 in data set [3] (IV 0.33 mg/Kg, 0.33 mg/kg) was 3.77 h. The “% F” value in data set [3] (PO 1.66 mg/Kg, 1.66 mg/kg) is 67% and 98%. Further, the half-life in data set [3] (0.33 mg/kg, IV 0.33 mg/Kg) was 3.7 h.

Take `Nc1nc2cnc(C(=O)N3CCC[C@@H]4Oc5c(ccc(C(F)(F)F)c5F)[C@@H]43)cc2n2cncc12` [Ff-109, (4-aminoimidazo[1,5-a]pyrido[3,4-e]pyrazin-8-yl)((4aS,9bS)-6-fluoro-7-(trifluoromethyl)-3,4,4a,9b-tetrahydrobenzofuro[3,2-b]pyridin-1(2H)-yl)methanone]: the “Human Predicted Hepatocyte CL” value in data set [1] is 2.33 mL/min/kg.

Regarding `Nc1nc2cnc(C(=O)N3CCC[C@@H]4Oc5cc(C(F)(F)F)ccc5[C@@H]43)cc2n2cncc12` [Ff-110, (4-aminoimidazo[1,5-a]pyrido[3,4-e]pyrazin-8-yl)((4aS,9bS)-7-(trifluoromethyl)-3,4,4a,9b-tetrahydrobenzofuro[3,2-b]pyridin-1(2H)-yl)methanone], the EC50 selectivity in data set [4] (setting [5]) was 118. For the same compound, the concentration for a half-maximal effect (EC50) in data set [4] is at most 1 nM. The “Human Predicted Hepatocyte CL” value in data set [1] is 3.67 mL/min/kg.

For the compound `Nc1nc2cnc(C(=O)N3CC[C@H]4C[C@@H]3c3ccc(C(F)(F)F)cc3O4)cc2n2cncc12` [Ff-367, (4-aminoimidazo[1,5-a]pyrido[3,4-e]pyrazin-8-yl)((2S,6R)-9-(trifluoromethyl)-3,4-dihydro-2H-2,6-methanobenzo[b][1,5]oxazocin-5(6H)-yl)methanone], the “Human Predicted Hepatocyte CL” value in data set [1] is 2.67 mL/min/kg.

With `Cc1ncn2c1c(N)nc1cnc(C(=O)N3CCC[C@@H]4Oc5cc(C(F)(F)F)ccc5[C@@H]43)cc12` [Ff-499, (4-amino-3-methylimidazo[1,5-a]pyrido[3,4-e]pyrazin-8-yl)((4aS,9bS)-7-(trifluoromethyl)-3,4,4a,9b-tetrahydrobenzofuro[3,2-b]pyridin-1(2H)-yl)methanone], in data set [1], the “Human Predicted Hepatocyte CL” value is 4.17 mL/min/kg. Further, in data set [2], the “Predicted Hepatocyte CL” value was 15.3 mL/min/kg. Moreover, in data set [3] (0.33 mg/kg, IV 0.33 mg/Kg), the half-life was 3.1 h, the clearance is 8.17 mL/min/kg and the Vd stood at 1.72 L/kg.

As to `Nc1nc2cnc(C(=O)N3CC4(CC4)C[C@@H]4Oc5cc(C(F)(F)F)ccc5[C@@H]43)cc2n2cncc12` [Ff-648, (4-aminoimidazo[1,5-a]pyrido[3,4-e]pyrazin-8-yl)((4aS,9bS)-7-(trifluoromethyl)-4a,9b-dihydro-2H-spiro[benzofuro[3,2-b]pyridine-3,1′-cyclopropan]-1(4H)-yl)methanone], the EC50 selectivity in data set [4] (setting [6]) is listed as 50. The compound also gave a concentration giving a half-maximal response (EC50) in data set [4] of at most 1 nM. In addition, in data set [1], the “Human Predicted Hepatocyte CL” value is 5.67 mL/min/kg.

For `Nc1nc2cnc(C(=O)N3CC[C@H]4C[C@@H]3c3ccc(C(F)(F)F)c(F)c3O4)cc2n2cncc12` [Ff-684, (4-aminoimidazo[1,5-a]pyrido[3,4-e]pyrazin-8-yl)((2S,6R)-10-fluoro-9-(trifluoromethyl)-3,4-dihydro-2H-2,6-methanobenzo[b][1,5]oxazocin-5(6H)-yl)methanone], the EC50 selectivity in data set [4] (setting [6]) is 121. The EC50 in data set [4] is at most 1 nM. For the same compound, the “Human Predicted Hepatocyte CL” value in data set [1] is 2.67 mL/min/kg.

Regarding `Nc1nc2cnc(C(=O)N3CC[C@H]4C[C@@H]3c3ccc(OC(F)(F)F)cc3O4)cc2n2cncc12` [Ff-685, (4-aminoimidazo[1,5-a]pyrido[3,4-e]pyrazin-8-yl)((2S,6R)-9-(trifluoromethoxy)-3,4-dihydro-2H-2,6-methanobenzo[b][1,5]oxazocin-5(6H)-yl)methanone], the EC50 selectivity in data set [4] (setting [6]) amounted to 108. Further, in data set [4], the EC50 is 1 to 5 nM. Besides, the “Human Predicted Hepatocyte CL” value in data set [1] was 4.83 mL/min/kg.

Take `[2H]C1([2H])CC[C@@H]2Oc3cc(C(F)(F)F)ccc3[C@@H]2N1C(=O)c1cc2c(cn1)nc(N)c1cncn12` [Fg-60, (4-aminoimidazo[1,5-a]pyrido[3,4-e]pyrazin-8-yl)((4aS,9bS)-7-(trifluoromethyl)-3,4,4a,9b-tetrahydrobenzofuro[3,2-b]pyridin-1(2H)-yl-2,2-d2)methanone]: the EC50 selectivity in data set [4] (setting [6]) is listed as 87. In data set [4], this compound registered a half-maximal effective concentration (EC50) of at most 1 nM. Moreover, in data set [1], the “Human Predicted Hepatocyte CL” value was 3.5 mL/min/kg.
